Data on 32 compounds can be found in patent US11071721B2, “Bicyclic amide compounds and methods of use thereof” (Genentech, Inc., priority 2016, dated 2021).

Each structure is given as a SMILES string. Where only a bound is given, the exact number is not on record here.

Sequence of human RIP1 kinase domain (2-375) (Q13546 2-375): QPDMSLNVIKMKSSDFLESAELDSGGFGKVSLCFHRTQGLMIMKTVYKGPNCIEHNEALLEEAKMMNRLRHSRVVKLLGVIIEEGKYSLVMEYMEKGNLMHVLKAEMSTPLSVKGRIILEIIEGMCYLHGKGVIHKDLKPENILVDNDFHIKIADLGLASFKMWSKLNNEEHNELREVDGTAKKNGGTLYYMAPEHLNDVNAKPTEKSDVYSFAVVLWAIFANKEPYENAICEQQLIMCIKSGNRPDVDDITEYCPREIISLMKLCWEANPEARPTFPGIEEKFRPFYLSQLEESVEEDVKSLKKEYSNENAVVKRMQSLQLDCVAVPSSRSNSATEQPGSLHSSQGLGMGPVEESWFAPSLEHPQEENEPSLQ

This test deals with human RIP1 kinase domain (2-375) (Homo sapiens (Human), UniProt Q13546). Nature of the test: RIP1 kinase inhibition assay (Transcreener ADP biochemical enzyme assay). As to conditions: Ki app (Morrison tight-binding fit); 50 nM enzyme, 50 uM ATP, 2 hours incubation, fluorescence polarization. The protocol:
RIP1 Kinase Inhibition Assays (Biochemical Assay):
The compounds of the present invention were tested for their capacity to inhibit RIP K activity as described below.
Enzyme assay: The ability of the receptor interacting protein kinase (RIPK1) to catalyze the hydrolysis of adenosine-5′-triphosphate (ATP) is monitored using the Transcreener ADP (adenosine-5′-diphosphate) assay (BellBrook Labs). Purified human RIP1 kinase domain (2-375) (50 nM) derived from a baculovirus-infected insect cell expression system is incubated with test compounds for 2 hours in 50 mM Hepes buffer (pH 7.5) containing 30 mM MgCl2, 1 mM dithiothreitol, 50 uM ATP, 0.002% Brij-35, and 0.5% dimethyl sulfoxide (DMSO). Reactions are quenched by the addition of 1× Bell Brooks Stop buffer B (20 mM Hepes (ph7.5), 40 mM ethylenediaminetetraacetic acid and 0.02% Brij-35) containing an additional 12 mM EDTA and 55 ug/mL ADP2 antibody and 4 nM ADP-AlexaFluor® 633 tracer. The tracer bound to the antibody is displaced by the ADP generated during the RIP1K reaction, which causes a decrease in fluorescence polarization that is measured by laser excitation at 633 nm with a FP microplate reader M1000. Fractional activity was plotted against test article concentration. Using Genedata Screener software (Genedata; Basel, Switzerland), the data were fit to the tight-binding apparent inhibition constant (Ki^app) Morrison equation [Williams, J. W. and Morrison, J. F. (1979) The kinetics of reversible tight-binding inhibition. Methods Enzymol 63: 437-67]. The following equation was used to calculate fractional activity and Ki^app:
[formula] where [E]T and [I]T are the total concentrations of active enzyme and test article, respectively.
For orientation: In fluorescence polarisation assays a small probe gives low polarisation when free and higher when bound to something large.
`O=C(c1nc2n(n1)[C@H](c1ccccc1)C[C@@H]2F)N1CCC[C@@H]1C(F)(F)F` (racemic) [Example 83, [rac-(5S,7S)-7-fluoro-5-phenyl-6,7-dihydro-5H-pyrrolo[1,2-b][1,2,4]triazol-2-yl]-[rac-(2R)-2-(trifluoromethyl)pyrrolidin-1-yl]methanone] yielded a Ki of 350 nM.
As for `O=C(c1nc2n(n1)[C@H](c1ccccc1)C[C@@H]2F)N1CCCC1C(F)(F)F` (mixture of isomers) [Example 84, [rac-(5S,7S)-7-fluoro-5-phenyl-6,7-dihydro-5H-pyrrolo[1,2-b][1,2,4]triazol-2-yl]-[2-(trifluoromethyl)pyrrolidin-1-yl]methanone], the Ki was 300 nM.
Under `C[C@H]1[C@H](C(F)(F)F)CCN1C(=O)c1nc2n(n1)[C@H](c1ccccc1)C[C@@H]2F` (racemic) [Example 85, [rac-(5S,7S)-7-fluoro-5-phenyl-6,7-dihydro-5H-pyrrolo[1,2-b][1,2,4]triazol-2-yl]-[rac-(2S,3R)-2-methyl-3-(trifluoromethyl)pyrrolidin-1-yl]methanone] stands 330 nM.
Next, `O=C(c1nc2n(n1)[C@H](c1ccccc1)C[C@@H]2F)N1CC2CC1CC2(F)F` (mixture of isomers) [Example 87, (5,5-difluoro-2-azabicyclo[2.2.1]heptan-2-yl)-[rac-(5S,7S)-7-fluoro-5-phenyl-6,7-dihydro-5H-pyrrolo[1,2-b][1,2,4]triazol-2-yl]methanone]: 150 nM; `O=C(c1nc2n(n1)[C@H](c1ccccc1)C[C@@H]2F)N1CCc2ccncc2C1` (racemic) [Example 88, 3,4-dihydro-1H-2,7-naphthyridin-2-yl-[rac-(5S,7S)-7-fluoro-5-phenyl-6,7-dihydro-5H-pyrrolo[1,2-b][1,2,4]triazol-2-yl]methanone]: 54 nM.
Regarding `O=C(c1nc2n(n1)[C@H](c1ccccc1)C[C@@H]2F)N1CCc2ncccc2C1` (racemic) [Example 89, 7,8-dihydro-5H-1,6-naphthyridin-6-yl-[rac-(5S,7S)-7-fluoro-5-phenyl-6,7-dihydro-5H-pyrrolo[1,2-b][1,2,4]triazol-2-yl]methanone], the Ki came out at 130 nM.
In turn, `CN(C(=O)c1nc2n(n1)[C@H](c1ccccc1)C[C@@H]2F)c1ccccc1` (racemic) [Example 90, rac-(5S,7S)-7-fluoro-N-methyl-N,5-diphenyl-6,7-dihydro-5H-pyrrolo[1,2-b][1,2,4]triazole-2-carboxamide] yielded a Ki of 620 nM.
The compound `CN(CC(F)F)C(=O)c1nc2n(n1)[C@H](c1ccccc1)C[C@@H]2F` (racemic) [Example 91, rac-(5S,7S)-N-(2,2-difluoroethyl)-7-fluoro-N-methyl-5-phenyl-6,7-dihydro-5H-pyrrolo[1,2-b] [1,2,4]triazole-2-carboxamide] gave a Ki of 42 nM.
Under `CN(CC(F)(F)F)C(=O)c1nc2n(n1)[C@H](c1ccccc1)C[C@@H]2F` (racemic) [Example 92, rac-(5S,7S)-7-fluoro-N-methyl-5-phenyl-N-(2,2,2-trifluoroethyl)-6,7-dihydro-5H-pyrrolo [1,2-b][1,2,4]triazole-2-carboxamide] stands 100 nM; under `O=C(c1nc2n(n1)[C@H](c1ccccc1)C[C@@H]2F)N1CCC(Cc2ccccc2)C1` (mixture of isomers) [Example 93, (3-benzylpyrrolidin-1-yl)-[rac-(5S,7S)-7-fIuoro-5-phenyl-6,7-dihydro-5H-pyrrolo[1,2-b][1,2,4]triazol-2-yl]methanone], 30 nM.
Next, `O=C(c1nc2n(n1)[C@H](c1ccccc1)C[C@@H]2F)N1CCCc2ccccc2C1` (racemic) [Example 94, [rac-(5S,7S)-7-fluoro-5-phenyl-6,7-dihydro-5H-pyrrolo[1,2-b][1,2,4]triazol-2-yl]-(1,3,4,5-tetrahydro-2-benzazepin-2-yl)methanone]: 160 nM; `O=C(c1nc2n(n1)[C@H](c1ccccc1)C[C@@H]2F)N1CCc2cccc(F)c2C1` (racemic) [Example 95, (8-fluoro-3,4-dihydro-1H-isoquinolin-2-yl)-[rac-(5S,7S)-7-fluoro-5-phenyl-6,7-dihydro-5H-pyrrolo[1,2-b][1,2,4]triazol-2-yl]methanone]: 18 nM; `CC1c2c(F)cccc2CCN1C(=O)c1nc2n(n1)[C@H](c1ccccc1)C[C@@H]2F` (mixture of isomers) [Example 96, (8-fluoro-1-methyl-3,4-dihydro-1H-isoquinolin-2-yl)-[rac-(5S,7S)-7-fluoro-5-phenyl-6,7-dihydro-5H-pyrrolo[1,2-b][1,2,4]triazol-2-yl]methanone]: 57 nM.
Turning to `CC1c2ccccc2CCN1C(=O)c1nc2n(n1)[C@H](c1ccccc1)C[C@@H]2F` (mixture of isomers) [Example 97, (1-methyl-3,4-dihydro-1H-isoquinolin-2-yl)-[rac-(5S,7S)-7-fluoro-5-phenyl-6,7-dihydro-5H-pyrrolo[1,2-b][1,2,4]triazol-2-yl]methanone], the Ki was 58 nM.
`O=C(c1nc2n(n1)[C@@H](c1ccccc1)C[C@H]2F)N1CC2C(C1)C2(F)F` (mixture of isomers) [Example 100, (6,6-difluoro-3-azabicyclo[3.1.0]hexan-3-yl)-[rac-(5R,7R)-7-fluoro-5-phenyl-6,7-dihydro-5H-pyrrolo[1,2-b][1,2,4]triazol-2-yl]methanone]: the Ki came out at 270 nM.
Next, `O=C(c1nc2n(n1)[C@@H](c1ccccc1)C[C@H]2F)N1CC2CC2C1` (mixture of isomers) [Example 101, 3-azabicyclo[3.1.0]hexan-3-yl-[rac-(5R, 7R)-7-fluoro-5-phenyl-6,7-dihydro-5H-pyrrolo[1,2-b][1,2,4]triazol-2-yl] methanone]: 82 nM; `O=C(c1cc2n(n1)C(c1ccccc1)CC2)N1CC(F)(F)C1` (racemic) [Example 102, (3,3-difluoroazetidin-1-yl)-(6-phenyl-5,6-dihydro-4H-pyrrolo[1,2-b]pyrazol-2-yl)methanone]: 240 nM.
Under `O=C(c1nc2n(n1)[C@@H](c1ccccc1)C[C@H]2F)N1CCC1` (racemic) [Example 104, azetidin-1-yl-[rac-(5R,7R)-7-fluoro-5-phenyl-6,7-dihydro-5H-pyrrolo [1,2-b][1,2,4]triazol-2-yl]methanone] stands 31 nM.
Under `CN(C)C(=O)c1nc2n(n1)[C@@H](c1ccccc1)C[C@H]2F` (racemic) [Example 105, rac-(5R,7R)-7-fluoro-N,N-dimethyl-5-phenyl-6,7-dihydro-5H-pyrrolo[1,2-b][1,2,4]triazole-2-carboxamide] stands 56 nM.
As to `O=C(c1nc2n(n1)[C@@H](c1ccccc1)CC2(F)F)N1CC(F)(F)C1` (single isomer, unassigned) [Example 1a], the Ki was determined as 8 nM.
Under `O=C(c1nc2n(n1)[C@@H](c1ccccc1)CC2(F)F)N1CC(F)(F)C1` (single isomer, unassigned) [Example 1b] stands greater than 10000 nM; under `CC[C@@]1(C)OCc2cnc(C(=O)N3CC(F)(F)C3)cc21` (single isomer, unassigned) [Example 7], 1980 nM; under `O=C(c1nc2n(n1)[C@H](c1ccccc1F)CC2)N1CC(F)(F)C1` (single isomer, unassigned) [Example 10], greater than 10000 nM.
Under `O=C(c1nc2n(n1)[C@@H](c1ccccc1F)CC2)N1CC(F)(F)C1` (single isomer, unassigned) [Example 11] stands 9 nM; under `O=C(c1nc2n(n1)[C@@H](c1ccccc1F)CC2)N1CCC1` (single isomer, unassigned) [Example 12], 137 nM; under `O=C(c1nc2n(n1)CC[C@H]2c1ccccc1)N1CC(F)(F)C1` (single isomer, unassigned) [Example 15], 66 nM.
In turn, `CC1(F)CN(C(=O)c2nc3n(n2)[C@@H](c2ccccc2)CC3(F)F)C1` (single isomer, unassigned) [Example 38] displayed a Ki of 48 nM.
Next, `O=C(c1nc2n(n1)[C@@H](c1ccccc1)CC2(F)F)N1CC(F)C1` (single isomer, unassigned) [Example 48]: 71 nM; `O=C(c1nc2n(n1)[C@H](c1ccccc1)C[C@@H]2F)N1CC[C@H]1C(F)F` (single isomer, unassigned) [Example 52]: 5 nM.
In the case of `O=C(c1nc2n(n1)[C@@H](c1ccccc1)C[C@H]2F)N1CCC[C@@H]1C(F)F` (single isomer, unassigned) [Example 65], the Ki was 36 nM.
Under `C[C@H]1[C@@H](C(F)(F)F)CCN1C(=O)c1nc2n(n1)[C@H](c1ccccc1)C[C@@H]2F` (single isomer, unassigned) [Example 86] stands 5 nM; under `O=C(c1nc2n(n1)[C@H](c1ccccc1)CC2)N1CC(F)(F)C1` (stereo in doubt) [Example 31, (3,3-difluoroazetidin-1-yl)-[rac-(5S)-5-phenyl-6,7-dihydro-5H-pyrrolo[1,2-b][1,2,4]triazol-2-yl]methanone], 7100 nM.
